The text below walks through data of ChEMBL document CHEMBL1147900, “Immuno-stimulating properties of diosgenyl saponins isolated from Paris polyphylla” (Bioorg Med Chem Lett, 2007).

What all share (type): functional, cell-based
Assay [1] deals with RAW. The assay is described as follows: Induction of respiratory burst in mouse RAW 264.7 cells at 10 nM assessed as superoxide anion production after 2 hrs by NBT test.
In assay [2] the test system is RAW. The assay is described as follows: Effect on phagocytic activity in mouse RAW 264.7 cells after 24 hrs.
For assay [3], the system named is RAW. As to the kind of experiment: Effect on phagocytic activity in mouse RAW 264.7 cells at 10 uM after 24 hrs.
Assay [4] deals with RAW. As to the kind of experiment: Effect on NO production in mouse RAW 264.7 cells at 100 nM.

Activity calls are given as the source filed them. No cut-off for these calls is given here.

Take `C[C@H]1CC[C@@]2(OC1)O[C@H]1C[C@H]3[C@@H]4CC=C5C[C@@H](O[C@@H]6O[C@@H](CO)[C@H](O[C@H]7O[C@H](C)[C@@H](O[C@H]8O[C@H](C)[C@@H](O)[C@H](O)[C@@H]8O)[C@H](O)[C@@H]7O)[C@@H](O)[C@@H]6O[C@@H]6O[C@@H](C)[C@@H](O)[C@H](O)[C@@H]6O)CC[C@]5(C)[C@H]4CC[C@]3(C)[C@H]1[C@@H]2C`: the outcome in assay [1], in assay [2], in assay [3] and in assay [4] was Active.
With `C[C@@H]1CC[C@@]2(OC1)O[C@H]1C[C@H]3[C@@H]4CC=C5C[C@@H](O)CC[C@]5(C)[C@H]4CC[C@]3(C)[C@H]1[C@@H]2C`, the outcome in assay [1] and in assay [4] was inactive. Further, in assay [2], the result was Active.
